pIC50: −log10 of the molar value.
System: 323965-272-R-J2-PDC complex spheroid growth, % test/control
Assay: Anticancer human tumor 323965-272-R-J2-PDC patient-derived pancreatic carcinoma cell line growth inhibition [Asc]
Conditions: for pIC50: curve of first compound; for viability, T/C: stronger effect = lower value
Outline: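 Complex solid-tumor spheroids incorporating human endothelial and mesenchymal stem cells received single agents or combinations over half-log dilution ranges anchored to clinical Cmax.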

[1] = second compound 0.00316 µM, first compound 0.00316 µM
[2] = second compound 0.00316 µM, first compound 0.01 µM
[3] = second compound 0.00316 µM, first compound 0.0316 µM
[4] = second compound 0.00316 µM, first compound 0.1 µM
[5] = second compound 0.00316 µM, first compound 0.316 µM
[6] = second compound 0.00316 µM, first compound 1 µM
[7] = second compound 0.01 µM, first compound 0.00316 µM
[8] = second compound 0.01 µM, first compound 0.01 µM
[9] = second compound 0.01 µM, first compound 0.0316 µM
[10] = second compound 0.01 µM, first compound 0.1 µM
[11] = second compound 0.01 µM, first compound 0.316 µM
[12] = second compound 0.01 µM, first compound 1 µM
[13] = second compound 0.0316 µM, first compound 0.00316 µM
[14] = second compound 0.0316 µM, first compound 0.01 µM
[15] = second compound 0.0316 µM, first compound 0.0316 µM
[16] = second compound 0.0316 µM, first compound 0.1 µM
[17] = second compound 0.0316 µM, first compound 0.316 µM
[18] = second compound 0.0316 µM, first compound 1 µM
[19] = second compound 0.1 µM, first compound 0.00316 µM
[20] = second compound 0.1 µM, first compound 0.01 µM
[21] = second compound 0.1 µM, first compound 0.0316 µM
[22] = second compound 0.1 µM, first compound 0.1 µM
[23] = second compound 0.1 µM, first compound 0.316 µM
[24] = second compound 0.1 µM, first compound 1 µM
[25] = second compound 0.316 µM, first compound 0.00316 µM
[26] = second compound 0.316 µM, first compound 0.01 µM
[27] = second compound 0.316 µM, first compound 0.0316 µM
[28] = second compound 0.316 µM, first compound 0.1 µM
[29] = second compound 0.316 µM, first compound 0.316 µM
[30] = second compound 0.316 µM, first compound 1 µM
[31] = second compound 1 µM, first compound 0.00316 µM
[32] = second compound 1 µM, first compound 0.01 µM
[33] = second compound 1 µM, first compound 0.0316 µM
[34] = second compound 1 µM, first compound 0.1 µM
[35] = second compound 1 µM, first compound 0.316 µM
[36] = second compound 1 µM, first compound 1 µM
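Further: compound exposure lasted 7 days starting three days after spheroid seeding.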
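Wherever viability, T/C is given: 100% = DMSO vehicle control wells with viability set relative to vehicle.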

CCN1CCN(Cc2ccc(Nc3ncc(F)c(-c4cc(F)c5nc(C)n(C(C)C)c5c4)n3)nc2)CC1 + CNC(C)C(=O)NC1CN(S(=O)(=O)c2cccc(S(=O)(=O)N3CCC4CCC(C(=O)NC(c5ccccc5)c5ccccc5)N4C(=O)C(NC(=O)C(C)NC)C3)c2)CCC2CCC(C(=O)NC(c3ccccc3)c3ccccc3)N2C1=O
pIC50 (second compound 0.00316 µM): < 6.00 | pIC50 (second compound 0.01 µM): < 6.00 | pIC50 (second compound 0.0316 µM): < 6.00 | pIC50 (second compound 0.1 µM): < 6.00 | pIC50 (second compound 0.316 µM): < 6.00 | pIC50 (second compound 1 µM): < 6.00 | viability, T/C [1]: 108% | viability, T/C [2]: 88.7% | viability, T/C [3]: 96.8% | viability, T/C [4]: 83.6% | viability, T/C [5]: 81.5% | viability, T/C [6]: 77.2% | viability, T/C [7]: 98.1% | viability, T/C [8]: 95% | viability, T/C [9]: 97.5% | viability, T/C [10]: 70% | viability, T/C [11]: 85.6% | viability, T/C [12]: 79% | viability, T/C [13]: 101% | viability, T/C [14]: 95.3% | viability, T/C [15]: 87.2% | viability, T/C [16]: 76.1% | viability, T/C [17]: 75% | viability, T/C [18]: 72.4% | viability, T/C [19]: 104% | viability, T/C [20]: 106% | viability, T/C [21]: 96.6% | viability, T/C [22]: 76.5% | viability, T/C [23]: 78.4% | viability, T/C [24]: 82.5% | viability, T/C [25]: 102% | viability, T/C [26]: 101% | viability, T/C [27]: 95.4% | viability, T/C [28]: 69.6% | viability, T/C [29]: 70.6% | viability, T/C [30]: 83.6% | viability, T/C [31]: 87.4% | viability, T/C [32]: 85.9% | viability, T/C [33]: 90.6% | viability, T/C [34]: 67.7% | viability, T/C [35]: 79.7% | viability, T/C [36]: 74.2%

NC(=O)C(=Cn1cnc(-c2cc(C(F)(F)F)cc(C(F)(F)F)c2)n1)c1cncnc1 + CNC(C)C(=O)NC1CN(S(=O)(=O)c2cccc(S(=O)(=O)N3CCC4CCC(C(=O)NC(c5ccccc5)c5ccccc5)N4C(=O)C(NC(=O)C(C)NC)C3)c2)CCC2CCC(C(=O)NC(c3ccccc3)c3ccccc3)N2C1=O
pIC50 (second compound 0.00316 µM): < 6.52 | pIC50 (second compound 0.01 µM): < 6.52 | pIC50 (second compound 0.0316 µM): < 6.52 | pIC50 (second compound 0.1 µM): < 6.52 | pIC50 (second compound 0.316 µM): < 6.52 | pIC50 (second compound 1 µM): < 6.52 | viability, T/C (second compound 0.00316 µM, first compound 0.000949 µM): 121% | viability, T/C (second compound 0.00316 µM, first compound 0.003 µM): 120% | viability, T/C (second compound 0.00316 µM, first compound 0.00949 µM): 97.1% | viability, T/C (second compound 0.00316 µM, first compound 0.03 µM): 99.6% | viability, T/C (second compound 0.00316 µM, first compound 0.0949 µM): 70.7% | viability, T/C (second compound 0.00316 µM, first compound 0.3 µM): 76.2% | viability, T/C (second compound 0.01 µM, first compound 0.000949 µM): 103% | viability, T/C (second compound 0.01 µM, first compound 0.003 µM): 108% | viability, T/C (second compound 0.01 µM, first compound 0.00949 µM): 109% | viability, T/C (second compound 0.01 µM, first compound 0.03 µM): 91.1% | viability, T/C (second compound 0.01 µM, first compound 0.0949 µM): 78.8% | viability, T/C (second compound 0.01 µM, first compound 0.3 µM): 62.5% | viability, T/C (second compound 0.0316 µM, first compound 0.000949 µM): 103% | viability, T/C (second compound 0.0316 µM, first compound 0.003 µM): 109% | viability, T/C (second compound 0.0316 µM, first compound 0.00949 µM): 108% | viability, T/C (second compound 0.0316 µM, first compound 0.03 µM): 86.7% | viability, T/C (second compound 0.0316 µM, first compound 0.0949 µM): 74.5% | viability, T/C (second compound 0.0316 µM, first compound 0.3 µM): 61.7% | viability, T/C (second compound 0.1 µM, first compound 0.000949 µM): 105% | viability, T/C (second compound 0.1 µM, first compound 0.003 µM): 104% | viability, T/C (second compound 0.1 µM, first compound 0.00949 µM): 104% | viability, T/C (second compound 0.1 µM, first compound 0.03 µM): 87% | viability, T/C (second compound 0.1 µM, first compound 0.0949 µM): 80.4% | viability, T/C (second compound 0.1 µM, first compound 0.3 µM): 62.5% | viability, T/C (second compound 0.316 µM, first compound 0.000949 µM): 107% | viability, T/C (second compound 0.316 µM, first compound 0.003 µM): 111% | viability, T/C (second compound 0.316 µM, first compound 0.00949 µM): 96.3% | viability, T/C (second compound 0.316 µM, first compound 0.03 µM): 93.6% | viability, T/C (second compound 0.316 µM, first compound 0.0949 µM): 77.1% | viability, T/C (second compound 0.316 µM, first compound 0.3 µM): 62.4% | viability, T/C (second compound 1 µM, first compound 0.000949 µM): 101% | viability, T/C (second compound 1 µM, first compound 0.003 µM): 104% | viability, T/C (second compound 1 µM, first compound 0.00949 µM): 77.3% | viability, T/C (second compound 1 µM, first compound 0.03 µM): 83.7% | viability, T/C (second compound 1 µM, first compound 0.0949 µM): 78.4% | viability, T/C (second compound 1 µM, first compound 0.3 µM): 71%

O=C(c1ccc(F)c(F)c1Nc1ccc(I)cc1F)N1CC(O)([C@@H]2CCCCN2)C1 + CNC(C)C(=O)NC1CN(S(=O)(=O)c2cccc(S(=O)(=O)N3CCC4CCC(C(=O)NC(c5ccccc5)c5ccccc5)N4C(=O)C(NC(=O)C(C)NC)C3)c2)CCC2CCC(C(=O)NC(c3ccccc3)c3ccccc3)N2C1=O
pIC50 (second compound 0.00316 µM): 7.01 | pIC50 (second compound 0.01 µM): 7.11 | pIC50 (second compound 0.0316 µM): 7.09 | pIC50 (second compound 0.1 µM): 7.03 | pIC50 (second compound 0.316 µM): 7.15 | pIC50 (second compound 1 µM): 7.27 | viability, T/C [1]: 117% | viability, T/C [2]: 99.1% | viability, T/C [3]: 77.5% | viability, T/C [4]: 50.1% | viability, T/C [5]: 27.3% | viability, T/C [6]: 18.5% | viability, T/C [7]: 105% | viability, T/C [8]: 90.3% | viability, T/C [9]: 60.8% | viability, T/C [10]: 47.7% | viability, T/C [11]: 28.2% | viability, T/C [12]: 13.2% | viability, T/C [13]: 94.5% | viability, T/C [14]: 96.3% | viability, T/C [15]: 64.3% | viability, T/C [16]: 47.9% | viability, T/C [17]: 25.7% | viability, T/C [18]: 14.4% | viability, T/C [19]: 102% | viability, T/C [20]: 90.9% | viability, T/C [21]: 81.6% | viability, T/C [22]: 46.4% | viability, T/C [23]: 23.6% | viability, T/C [24]: 13.1% | viability, T/C [25]: 110% | viability, T/C [26]: 82.8% | viability, T/C [27]: 71.5% | viability, T/C [28]: 41.8% | viability, T/C [29]: 22% | viability, T/C [30]: 11.3% | viability, T/C [31]: 92.8% | viability, T/C [32]: 85.6% | viability, T/C [33]: 57.3% | viability, T/C [34]: 39% | viability, T/C [35]: 18.8% | viability, T/C [36]: 9.3%

— PubChem BioAssay AID1963425 (Molecular Pharmacology Branch, DTP, NCI, 2024)
